US20260158103A1, “USE OF CYCLOSPORINE ANALOGUES AS ANTITHROMBOTIC AGENTS” (Hepion Pharmaceuticals, Inc., priority 2020, published 2026)
Entries after “also recorded” stand apart in the source; their conditions may differ. Where a SMILES comes first, the peptide text is derived from it. [ ]: non-standard residue; d: D form. NMeThr(4R-Me,4-(CH2)6NHAc) = CN[C@H](C(=O)O)[C@H](O)[C@H](C)CCCCCCNC(C)=O; NMeL = CN[C@@H](CC(C)C)C(=O)O; NMeV = CN[C@H](C(=O)O)C(C)C; dNMeA = CN[C@H](C)C(=O)O; Abu = CC[C@H](N)C(=O)O

What was measured:
[1] = system: human platelet aggregation; experiment: Platelet aggregometry (washed platelets, lumi-aggregometer, % Light Transmittance); format: cell-based
Description: (§1) Platelet isolation. Blood (40 ml) was obtained from healthy volunteers who had not taken any drugs known to affect platelet function for 2 weeks prior to the study. Prostacyclin-washed platelet suspensions (2.5×10^8/ml) were prepared in Tyrode's buffer.
Platelet aggregometry. Washed platelets (500 μl/test) were pre-incubated (2 minutes at 37° C.) in a lumi-aggregometer (Chronolog, Havertown, PA, USA) with either vehicle (0.1% DMSO) or CRV431 (0.01-3 μM). Platelet aggregation was then initiated with collagen (1 μg/mL) or thrombin (0.1 U/mL) (Chronolog) and monitored by Aggro-Link software for a further 6 minutes. Extent of platelet aggregation was measured as % Light Transmittance between minutes 2 and 6 and determined by Aggro-Link Software.
(§2) Statistics. Statistical analysis was performed using GraphPad Prism 7.0 software. All means are reported with SEM. One-way ANOVA with Dunnet's multiple comparisons test was performed for aggregation studies, and a Repeated-measures One-way ANOVA with Dunnet's multiple comparisons test was performed for procoagulant platelet formation studies. Each N represents an experiment from an independent blood donor. A P-value less than 0.05 was considered significant.

[2] = system: human procoagulant platelet formation (platelet PS exposure); experiment: Procoagulant platelet formation (annexin-V-FITC binding to exposed phosphatidylserine, flow cytometry); format: cell-based
Description: as §1
Procoagulant platelet formation studies. […] Procoagulant platelet formation was assessed by measuring annexin-V-FITC binding to exposed phosphatidylserine (PS) by flow cytometry as described previously. Flow cytometry was performed utilizing a BD Fortessa X20 flow cytometer equipped with a blue (488 nm) laser and […] band pass filters to detect FITC. Percent PS-positive platelets were determined post-acquisition using FlowJo software.
as §2

SMILES | inhibition of platelet aggregation (positive control) ([1]; single blood donor (FIG. 3B), agonist and concentration not given) | inhibition of platelet aggregation induced by collagen ([1]; collagen 1 μg/mL, CRV431 0.01-3 μM, washed human platelets, N=10, P>0.05) | inhibition of platelet aggregation at the highest concentration tested ([1]; single blood donor (FIG. 3A), highest concentration tested) | inhibition of platelet aggregation induced by thrombin ([1]; thrombin 0.1 U/mL, CRV431 0.01-3 μM, washed human platelets, N=9, P>0.05) | inhibition of platelet PS-exposure, a marker of procoagulant platelet formation ([2]; CRV431 at 1 and 3 μM, activated by collagen and thrombin, N=8, P<0.01 / P<0.001 vs. vehicle control) | percentage of phosphatidylserine (PS)-positive platelets ([2]; increasing concentrations of CRV431, induced by collagen (10 μg/ml) and thrombin (0.1 U/ml), flow cytometry)
CC(=O)Oc1ccccc1C(=O)O [acetylsalicylic acid, reference compound] | effectively inhibited aggregation; also recorded: platelet aggregation is inhibited | – | – | – | – | –
CC[C@@H]1NC(=O)[C@H]([C@H](O)[C@H](C)CCCCCCNC(C)=O)N(C)C(=O)[C@H](C(C)C)N(C)C(=O)[C@H](CC(C)C)N(C)C(=O)[C@H](CC(C)C)N(C)C(=O)[C@@H](C)NC(=O)[C@H](C)NC(=O)[C@H](CC(C)C)N(C)C(=O)[C@H](C(C)C)NC(=O)[C@H](CC(C)C)N(C)C(=O)[C@@H](C)N(C)C1=O [CRV431] (cyclo(A[dA][NMeL][NMeL][NMeV][NMeThr(4R-Me,4-(CH2)6NHAc)][Abu][dNMeA][NMeL]V[NMeL])) | – | did not inhibit platelet aggregation | does not inhibit platelet aggregation | did not inhibit platelet aggregation | significantly inhibited platelet PS-exposure | reduce the percentage of phosphatidylserine (PS)-positive platelets
